# Calls of active or inactive are those of the source. No cut-off for these calls is given here.
# Experiments:
# Influenza A virus [1] = experiment: (§1) Antiviral activity against Influenza A virus H1N1 (A/Weiss/43)-infected in dog MDCK cells assessed as reduction in oxidative stress by measuring proportion of normal cells at 50 uM treated at 2 hrs post-infection and measured after 36 hrs by DCFH-DA staining based flow cytometry (reference value: 69.4%); type: functional; set-up: scale not given: the % may be the effect or the level left
# Influenza A virus [2] = experiment: Antiviral activity against Influenza A virus H1N1 infected in dog MDCK cells assessed as decrease in apoptosis by measuring proportion of necrotic cells at 25 uM measured after 72 hrs by AnnexinV-FITC/PI staining based flow cytometry (reference value: 2.47%); type: functional; set-up: scale not given: the % may be the effect or the level left
# Influenza A virus [3] = experiment: Antiviral activity against Influenza A virus H1N1 (A/Weiss/43)-infected in BALB/c mouse assessed as reduction in viral NP mRNA expression in lungs at 25 to 100 mg/kg/day administered intranasally for 2 to 6 days starting from 3 hrs post-viral infection by qRT-PCR analysis; type: functional, organism-based; conditions: dose 25-100 mg/kg/day, route nas, time 2-6 day
# [4] = Selectivity index, ratio of CC50 for dog MDCK cells to EC50 for antiviral activity against Influenza A virus H1N1 (A/Weiss/43) infected in MDCK cells treated for 2 hrs before viral infection and measured after 72 hrs; type: toxicity, cell-based; conditions: read-out: Ratio CC50/EC50
# Erythrocyte = experiment: Inhibition of Hemagglutinin1 in Influenza A virus assessed as inhibition of virus-induced hemagglutination at 7.81 to 250 uM pretreated with virus for 30 mins followed by chicken RBC addition and measured after 1 hr; type: cell-based; conditions: dose 7.81-250 µM, time 90.0 min
# [5] = Toxicity in dog MDCK cells assessed as proportion of early apoptotic cells at 50 uM measured after 72 hrs by AnnexinV-FITC/PI staining based flow cytometry (reference value: 4.51%); type: cell-based, Canis lupus familiaris
# Influenza A virus [6] = experiment: Antiviral activity against Influenza A virus H1N1 infected in human A549 cells assessed as decrease in cytokine gene expression by measuring decrease in IL-6 gene expression at 25 to 50 uM measured after 24 hrs by qRT-PCR analysis; type: functional, organism-based; conditions: dose 25-50 µM
# [7] = Selectivity index, ratio of CC50 for dog MDCK cells to EC50 for antiviral activity against Influenza A virus H1N1 (A/Weiss/43) infected in MDCK cells treated for 72 hrs after viral adsorption; type: toxicity, cell-based; conditions: read-out: Ratio CC50/EC50
# Influenza A virus [8] = experiment: Antiviral activity against Influenza A virus H1N1 (A/Weiss/43)-infected in BALB/c mouse assessed as reduction in RIG-1 gene expression in lungs at 25 to 100 mg/kg/day administered intranasally for 6 days starting from 3 hrs post-viral infection by qRT-PCR analysis; type: functional, organism-based; conditions: dose 25-100 mg/kg/day, route nas, time 6.0 day
# Influenza A virus [9] = experiment: Antiviral activity against Influenza A virus H1N1 infected in human A549 cells assessed as decrease in cytokine gene expression by measuring decrease in TNF-alpha gene expression at 25 to 50 uM measured after 24 hrs by qRT-PCR analysis; type: functional, organism-based; conditions: dose 25-50 µM
# Influenza A virus [10] = experiment: Antiviral activity against Influenza A virus H1N1 (A/Weiss/43)-infected in BALB/c mouse assessed as reduction in viral NP protein expression in lungs at 25 to 100 mg/kg/day administered intranasally for 6 days starting from 3 hrs post-viral infection by immunohistochemistry; type: functional, organism-based; conditions: dose 25-100 mg/kg/day, route nas, time 6.0 day
# Influenza A virus [11] = experiment: Antiviral activity against Influenza A virus H1N1 infected in human A549 cells assessed as decrease in apoptosis by measuring decrease in cleaved caspase-7 protein expression at 25 to 50 uM measured after 24 hrs by western blot analysis; type: functional, organism-based; conditions: dose 25-50 µM
# [12] = Toxicity in dog MDCK cells assessed as proportion of late apoptotic cells at 50 uM measured after 72 hrs by AnnexinV-FITC/PI staining based flow cytometry (reference value: 3.45%); type: cell-based, Canis lupus familiaris
# Influenza A virus [13] = experiment: Antiviral activity against Influenza A virus H1N1 infected in dog MDCK cells assessed as decrease in apoptosis by measuring proportion of necrotic cells at 50 uM measured after 72 hrs by AnnexinV-FITC/PI staining based flow cytometry (reference value: 2.47%); type: functional; set-up: scale not given: the % may be the effect or the level left
# Influenza A virus [14] = experiment: Antiviral activity against Influenza A virus infected in human A549 cells assessed as reduction of viral replication at 6.25 to 100 uM incubated for 72 hrs by TCID50 method; type: functional, organism-based; conditions: dose 6.25-100 µM
# Influenza A virus [15] = experiment: Antiviral activity against Influenza A virus H1N1 (A/Weiss/43) infected in MDCK cells assessed as reduction of viral replication treated for 2 hrs during viral adsorption and measured after 72 hrs by TCID50 method; type: functional, organism-based
# Influenza A virus [16] = experiment: Antiviral activity against Influenza A virus H1N1 (A/Weiss/43) infected in MDCK cells assessed as reduction of viral replication at 50 uM treated for 2 to 4 hrs after viral infection and measured after 72 hrs by MTT method; type: functional, organism-based; conditions: time 74-76 hrs
# Influenza A virus [17] = experiment: Antiviral activity against Influenza A virus H1N1 infected in human A549 cells assessed as decrease in RIG-1 pathway related gene expression by measuring decrease in RIG-1 gene expression at 25 to 50 uM measured after 24 hrs by qRT-PCR analysis; type: functional, organism-based; conditions: dose 25-50 µM
# Influenza A virus [18] = experiment: Antiviral activity against Influenza A virus H1N1 (A/Weiss/43) infected in MDCK cells assessed as reduction of viral replication treated for 72 hrs after viral adsorption by TCID50 method; type: functional, organism-based
# Influenza A virus [19] = experiment: Antiviral activity against Influenza A virus H1N1 (A/Weiss/43)-infected in BALB/c mouse assessed as reduction in IL-6 gene expression in lungs at 25 to 100 mg/kg/day administered intranasally for 6 days starting from 3 hrs post-viral infection by qRT-PCR analysis; type: functional, organism-based; conditions: dose 25-100 mg/kg/day, route nas, time 6.0 day
# Influenza A virus [20] = experiment: Antiviral activity against Influenza A virus H1N1 (A/Weiss/43)-infected in BALB/c mouse assessed as reduction in MyD88 gene expression in lungs at 25 to 100 mg/kg/day administered intranasally for 6 days starting from 3 hrs post-viral infection by qRT-PCR analysis; type: functional, organism-based; conditions: dose 25-100 mg/kg/day, route nas, time 6.0 day
# [21] = Toxicity in dog MDCK cells assessed as proportion of viable cells at 50 uM measured after 72 hrs by AnnexinV-FITC/PI staining based flow cytometry (reference value: 90.6%); type: cell-based, Canis lupus familiaris; conditions: read-out: Activity
# Influenza A virus [22] = experiment: as §1, with “25” for “50”; type: functional; set-up: scale not given: the % may be the effect or the level left
# Influenza A virus [23] = experiment: Inhibition of Influenza A virus replication infected in human A549 cells assessed as downregulation of virus NP protein expression at 25 to 50 uM measured after 24 hrs by western blot analysis; type: functional, organism-based; conditions: dose 25-50 µM
# Influenza A virus [24] = experiment: Antiviral activity against Influenza A virus H1N1 infected in human A549 cells assessed as decrease in cytokine gene expression by measuring decrease in IFN-beta gene expression at 25 to 50 uM measured after 24 hrs by qRT-PCR analysis; type: functional, organism-based; conditions: dose 25-50 µM
compound,measurement,setting,value
O=[N+]([O-])c1ccc(S(=O)(=O)N(Cc2ccccc2)c2cccc3ccccc23)cc1,Activity,Influenza A virus [1],95.3%
same,Activity,Influenza A virus [2],0.81%
same,Activity,Influenza A virus [3],Active
same,selectivity ratio at 72 h,[4],> 105
same,inhibition,Erythrocyte,inactive
same,Activity,[5],1.56%
same,inhibition,Influenza A virus [6],Active
same,selectivity ratio at 72 h,[7],> 351
same,Activity,Influenza A virus [8],Active
same,inhibition,Influenza A virus [9],Active
same,Activity,Influenza A virus [10],Active
same,inhibition,Influenza A virus [11],Active
same,Activity,[12],0.71%
same,Activity,Influenza A virus [13],0.6%
same,Activity,Influenza A virus [14],Active
same,EC50,Influenza A virus [15],6.09 µM
same,Activity,Influenza A virus [16],Active
same,inhibition,Influenza A virus [17],Active
same,EC50,Influenza A virus [18],2280 nM
same,Activity,Influenza A virus [19],Active
same,Activity,Influenza A virus [20],Active
same,"viability at 72 h, 50 µM",[21],96.9%
same,Activity,Influenza A virus [22],87.7%
same,inhibition,Influenza A virus [23],Active
same,inhibition,Influenza A virus [24],Active
